These results are taken from ChEMBL document CHEMBL5696441 (Nat Chem Biol, 2011).

Series [1] relates to Tyrosine-protein kinase ABL1 (Homo sapiens), P00519 [E255K]. Kind of series: Inhibition of human ABL1 E255K mutant assessed as residual activity at 1 uM using Poly(Ala,Glu,Lys,Tyr)6:2:5:1 as substrate in presence of 33P-ATP by ProQinase assay relative to control.
The test system of series [2] is Platelet-derived growth factor receptor alpha (Homo sapiens), P16234 [V561D]. Nature of the series: Inhibition of human PDGFRalpha V561D mutant assessed as residual activity at 1 uM using PolyEY as substrate in presence of 33P-ATP by ProQinase assay relative to control.
Series [3] addresses Mitogen-activated protein kinase kinase kinase 9 (Homo sapiens) (UniProt P80192). Nature of the series: Inhibition of human MAP3K9 assessed as residual activity at 1 uM using RBER-GSK3 as substrate in presence of 33P-ATP by ProQinase assay relative to control.
Series [4] addresses Calcium/calmodulin-dependent protein kinase kinase 2 (Homo sapiens) (UniProt Q96RR4). Nature of the series: Inhibition of human CAMKK2 assessed as residual activity at 1 uM using RBER-GSK3 as substrate in presence of 33P-ATP by ProQinase assay relative to control.
The target of series [5] is Tyrosine-protein kinase Lck (Homo sapiens) (UniProt P06239). Kind of series: Inhibition of human LCK assessed as residual activity at 1 uM using polyEY as substrate in presence of 33P-ATP by ProQinase assay relative to control.
For series [6], the target named is Serine/threonine-protein kinase D2 (Homo sapiens) (UniProt Q9BZL6). Nature of the series: Inhibition of PRKD2 (unknown origin) assessed as remaining activity at 1 uM by Kinome scan method relative to control.
The target of series [7] is Dual specificity protein kinase CLK1 (Homo sapiens) (UniProt P49759). Nature of the series: Inhibition of human CLK1 assessed as residual activity at 1 uM using autophos as substrate in presence of 33P-ATP by ProQinase assay relative to control.
For series [8], the target named is Serine/threonine-protein kinase PAK 2 (Homo sapiens) (UniProt Q13177). Nature of the series: Inhibition of human PAK2 assessed as residual activity at 1 uM using bio-4xCHKT as substrate in presence of 33P-ATP by ProQinase assay relative to control.
The next series has as its target CYP2C9 (Homo sapiens, UniProt P11712). Nature of the series: Inhibition of CYP2C9 (unknown origin) at 10 uM relative to control. The series is classed as ADME.
Series [9] deals with RAC-alpha serine/threonine-protein kinase (Homo sapiens) (UniProt P31749). Kind of series: Inhibition of human AKT1 assessed as residual activity at 1 uM using RBER-GSK3(14-27) as substrate in presence of 33P-ATP by ProQinase assay relative to control.
Series [10] deals with T1, Serine/threonine-protein kinase TAO3 (Homo sapiens) (UniProt Q9H2K8).
T1 sequence (whole entry): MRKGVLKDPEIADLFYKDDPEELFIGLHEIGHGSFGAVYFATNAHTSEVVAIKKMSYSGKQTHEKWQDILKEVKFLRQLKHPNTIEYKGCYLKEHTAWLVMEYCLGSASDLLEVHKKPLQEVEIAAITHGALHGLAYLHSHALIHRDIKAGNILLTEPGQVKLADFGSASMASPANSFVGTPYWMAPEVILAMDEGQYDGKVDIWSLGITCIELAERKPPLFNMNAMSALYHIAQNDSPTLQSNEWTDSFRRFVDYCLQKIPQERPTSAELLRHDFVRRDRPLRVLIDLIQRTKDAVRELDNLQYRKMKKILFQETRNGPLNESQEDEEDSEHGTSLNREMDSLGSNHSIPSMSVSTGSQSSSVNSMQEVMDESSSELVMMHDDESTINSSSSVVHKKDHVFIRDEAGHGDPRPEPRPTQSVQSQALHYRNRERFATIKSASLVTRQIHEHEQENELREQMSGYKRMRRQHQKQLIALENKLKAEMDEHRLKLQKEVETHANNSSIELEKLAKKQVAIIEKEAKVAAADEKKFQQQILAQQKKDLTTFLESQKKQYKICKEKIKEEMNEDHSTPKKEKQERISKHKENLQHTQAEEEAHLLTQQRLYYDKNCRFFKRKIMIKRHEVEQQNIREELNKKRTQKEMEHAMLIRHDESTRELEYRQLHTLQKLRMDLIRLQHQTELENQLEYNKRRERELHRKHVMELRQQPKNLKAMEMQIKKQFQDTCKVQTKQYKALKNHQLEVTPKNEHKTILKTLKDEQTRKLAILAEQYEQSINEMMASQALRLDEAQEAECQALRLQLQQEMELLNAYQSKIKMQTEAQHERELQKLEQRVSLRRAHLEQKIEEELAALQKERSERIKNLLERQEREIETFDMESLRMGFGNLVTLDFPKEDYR
Nature of the series: Inhibition of human TAOK3 assessed as residual activity at 1 uM using 3xChocktide-PKC(19-31) as substrate in presence of 33P-ATP by ProQinase assay relative to control.

Sequence of Serine/threonine-protein kinase D2 (Homo sapiens) (Q9BZL6 whole entry): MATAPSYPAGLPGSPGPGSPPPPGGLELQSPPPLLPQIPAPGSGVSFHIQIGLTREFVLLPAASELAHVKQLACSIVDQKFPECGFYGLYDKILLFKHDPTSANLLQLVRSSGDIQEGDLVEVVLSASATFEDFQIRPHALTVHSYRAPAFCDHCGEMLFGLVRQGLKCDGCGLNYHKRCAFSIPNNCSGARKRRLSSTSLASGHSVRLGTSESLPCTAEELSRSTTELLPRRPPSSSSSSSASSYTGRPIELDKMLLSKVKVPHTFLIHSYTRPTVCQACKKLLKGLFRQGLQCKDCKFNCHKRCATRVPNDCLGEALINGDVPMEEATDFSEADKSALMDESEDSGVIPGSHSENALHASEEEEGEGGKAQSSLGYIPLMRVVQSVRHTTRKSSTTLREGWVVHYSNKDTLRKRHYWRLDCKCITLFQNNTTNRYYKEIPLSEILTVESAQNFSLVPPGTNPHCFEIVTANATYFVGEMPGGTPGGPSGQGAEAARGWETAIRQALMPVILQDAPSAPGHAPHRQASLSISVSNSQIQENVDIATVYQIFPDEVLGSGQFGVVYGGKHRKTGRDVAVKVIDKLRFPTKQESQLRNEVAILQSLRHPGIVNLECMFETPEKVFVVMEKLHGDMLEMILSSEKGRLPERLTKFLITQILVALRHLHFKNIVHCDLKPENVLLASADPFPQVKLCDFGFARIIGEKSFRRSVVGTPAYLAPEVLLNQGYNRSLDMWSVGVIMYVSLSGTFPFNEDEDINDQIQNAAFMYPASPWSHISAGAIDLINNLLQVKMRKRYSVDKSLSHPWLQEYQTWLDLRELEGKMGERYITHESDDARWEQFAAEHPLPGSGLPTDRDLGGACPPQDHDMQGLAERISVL
Sequence of Calcium/calmodulin-dependent protein kinase kinase 2 (Homo sapiens) (Q96RR4 2-588 limits assumed): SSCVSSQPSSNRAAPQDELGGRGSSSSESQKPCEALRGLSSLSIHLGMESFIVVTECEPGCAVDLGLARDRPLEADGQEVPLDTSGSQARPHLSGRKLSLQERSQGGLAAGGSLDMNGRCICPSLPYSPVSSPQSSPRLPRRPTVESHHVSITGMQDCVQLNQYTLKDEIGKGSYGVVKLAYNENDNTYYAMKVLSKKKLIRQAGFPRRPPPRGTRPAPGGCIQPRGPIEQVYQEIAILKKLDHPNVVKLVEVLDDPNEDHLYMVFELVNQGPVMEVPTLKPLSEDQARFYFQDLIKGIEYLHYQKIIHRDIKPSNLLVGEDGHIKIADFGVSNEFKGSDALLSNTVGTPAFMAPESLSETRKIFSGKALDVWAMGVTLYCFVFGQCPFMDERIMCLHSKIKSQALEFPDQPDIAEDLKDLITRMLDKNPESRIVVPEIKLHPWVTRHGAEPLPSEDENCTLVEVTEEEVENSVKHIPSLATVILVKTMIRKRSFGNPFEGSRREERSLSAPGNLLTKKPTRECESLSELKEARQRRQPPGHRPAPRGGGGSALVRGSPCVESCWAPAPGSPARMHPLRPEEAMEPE
Sequence of RAC-alpha serine/threonine-protein kinase (Homo sapiens) (P31749 whole entry): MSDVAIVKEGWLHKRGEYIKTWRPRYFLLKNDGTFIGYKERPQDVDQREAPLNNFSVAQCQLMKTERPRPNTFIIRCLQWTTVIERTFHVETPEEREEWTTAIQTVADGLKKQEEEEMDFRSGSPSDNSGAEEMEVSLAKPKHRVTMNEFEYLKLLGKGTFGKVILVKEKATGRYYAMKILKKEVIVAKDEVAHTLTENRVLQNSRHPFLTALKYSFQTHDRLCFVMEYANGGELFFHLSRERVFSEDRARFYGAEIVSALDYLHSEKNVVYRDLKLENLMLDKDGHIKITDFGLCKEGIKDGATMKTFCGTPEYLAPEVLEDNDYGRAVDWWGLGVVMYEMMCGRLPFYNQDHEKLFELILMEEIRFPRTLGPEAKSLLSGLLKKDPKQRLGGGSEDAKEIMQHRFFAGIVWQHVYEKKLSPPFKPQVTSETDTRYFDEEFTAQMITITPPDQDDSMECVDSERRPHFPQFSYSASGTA
Sequence of CYP2C9 (P11712 whole entry): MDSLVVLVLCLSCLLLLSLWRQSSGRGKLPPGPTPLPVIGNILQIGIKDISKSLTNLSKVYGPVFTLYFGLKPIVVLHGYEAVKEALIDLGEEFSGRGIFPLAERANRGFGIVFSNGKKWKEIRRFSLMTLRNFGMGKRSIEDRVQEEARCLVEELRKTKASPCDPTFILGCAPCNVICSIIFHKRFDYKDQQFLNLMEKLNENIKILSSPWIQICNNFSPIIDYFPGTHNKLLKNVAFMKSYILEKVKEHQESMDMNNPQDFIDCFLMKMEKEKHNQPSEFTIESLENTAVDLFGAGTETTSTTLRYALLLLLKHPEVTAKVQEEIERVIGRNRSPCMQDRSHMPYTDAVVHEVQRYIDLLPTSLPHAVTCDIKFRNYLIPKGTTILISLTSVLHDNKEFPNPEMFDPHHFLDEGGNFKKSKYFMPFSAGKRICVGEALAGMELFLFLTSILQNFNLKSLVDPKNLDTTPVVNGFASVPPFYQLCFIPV
Sequence of Platelet-derived growth factor receptor alpha (Homo sapiens), P16234 [V561D] (P16234 whole entry V561D): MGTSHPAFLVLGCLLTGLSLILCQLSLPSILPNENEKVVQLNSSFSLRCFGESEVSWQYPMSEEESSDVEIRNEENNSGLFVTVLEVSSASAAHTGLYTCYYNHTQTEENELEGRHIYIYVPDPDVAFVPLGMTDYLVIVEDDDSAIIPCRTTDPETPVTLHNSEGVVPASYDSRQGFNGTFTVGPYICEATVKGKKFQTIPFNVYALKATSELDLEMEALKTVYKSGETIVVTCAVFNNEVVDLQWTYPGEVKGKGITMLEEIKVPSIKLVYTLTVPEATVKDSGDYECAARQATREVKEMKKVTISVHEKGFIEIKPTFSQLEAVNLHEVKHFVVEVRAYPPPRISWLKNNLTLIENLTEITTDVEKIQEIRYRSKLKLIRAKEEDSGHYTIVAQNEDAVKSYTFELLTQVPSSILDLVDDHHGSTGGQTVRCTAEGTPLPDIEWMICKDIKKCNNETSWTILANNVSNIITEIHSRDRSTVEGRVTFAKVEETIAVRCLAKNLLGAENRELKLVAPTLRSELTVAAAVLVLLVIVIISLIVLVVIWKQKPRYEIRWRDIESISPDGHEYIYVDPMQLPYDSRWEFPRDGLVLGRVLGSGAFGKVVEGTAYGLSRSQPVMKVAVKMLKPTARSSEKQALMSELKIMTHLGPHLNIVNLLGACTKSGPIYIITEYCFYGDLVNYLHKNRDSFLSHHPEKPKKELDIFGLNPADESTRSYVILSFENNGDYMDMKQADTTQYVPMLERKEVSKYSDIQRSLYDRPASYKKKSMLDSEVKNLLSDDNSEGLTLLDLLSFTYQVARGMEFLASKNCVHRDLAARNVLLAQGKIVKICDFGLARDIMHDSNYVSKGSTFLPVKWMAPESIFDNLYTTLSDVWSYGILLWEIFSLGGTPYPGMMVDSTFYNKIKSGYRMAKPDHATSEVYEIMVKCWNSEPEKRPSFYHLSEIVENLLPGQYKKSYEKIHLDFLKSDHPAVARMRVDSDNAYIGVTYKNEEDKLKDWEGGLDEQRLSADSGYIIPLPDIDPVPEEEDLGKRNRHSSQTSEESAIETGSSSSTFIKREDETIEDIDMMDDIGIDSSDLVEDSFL
Sequence of Dual specificity protein kinase CLK1 (Homo sapiens) (P49759 whole entry, looked up): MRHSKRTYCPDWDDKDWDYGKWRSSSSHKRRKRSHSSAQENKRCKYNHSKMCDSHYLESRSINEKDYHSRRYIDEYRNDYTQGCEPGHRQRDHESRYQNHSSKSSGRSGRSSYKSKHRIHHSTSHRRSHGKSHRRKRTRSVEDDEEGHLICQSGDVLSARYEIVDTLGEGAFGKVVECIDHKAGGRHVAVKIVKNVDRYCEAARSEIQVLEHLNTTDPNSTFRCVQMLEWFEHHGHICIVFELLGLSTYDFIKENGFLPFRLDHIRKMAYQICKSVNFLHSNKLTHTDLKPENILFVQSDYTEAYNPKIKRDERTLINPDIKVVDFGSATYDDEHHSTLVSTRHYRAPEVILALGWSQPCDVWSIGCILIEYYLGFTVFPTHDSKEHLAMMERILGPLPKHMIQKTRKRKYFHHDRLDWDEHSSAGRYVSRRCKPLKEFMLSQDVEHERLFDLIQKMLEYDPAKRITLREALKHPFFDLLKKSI
Sequence of Serine/threonine-protein kinase PAK 2 (Homo sapiens) (Q13177 whole entry): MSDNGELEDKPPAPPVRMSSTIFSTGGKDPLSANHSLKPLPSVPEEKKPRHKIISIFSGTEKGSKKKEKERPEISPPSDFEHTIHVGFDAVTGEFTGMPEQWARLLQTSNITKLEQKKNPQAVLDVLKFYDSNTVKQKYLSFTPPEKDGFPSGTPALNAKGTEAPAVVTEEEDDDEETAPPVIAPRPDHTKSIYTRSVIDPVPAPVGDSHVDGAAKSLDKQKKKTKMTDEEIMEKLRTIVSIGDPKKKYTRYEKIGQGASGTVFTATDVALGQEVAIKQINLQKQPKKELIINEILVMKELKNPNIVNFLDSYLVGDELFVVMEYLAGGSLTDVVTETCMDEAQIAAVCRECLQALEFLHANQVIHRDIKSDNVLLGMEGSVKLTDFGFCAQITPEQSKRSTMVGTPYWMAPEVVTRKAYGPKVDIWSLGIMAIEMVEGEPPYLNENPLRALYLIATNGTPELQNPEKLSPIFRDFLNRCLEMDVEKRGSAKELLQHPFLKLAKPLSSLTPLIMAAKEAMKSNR
Sequence of Tyrosine-protein kinase Lck (Homo sapiens) (P06239 2-509 limits assumed): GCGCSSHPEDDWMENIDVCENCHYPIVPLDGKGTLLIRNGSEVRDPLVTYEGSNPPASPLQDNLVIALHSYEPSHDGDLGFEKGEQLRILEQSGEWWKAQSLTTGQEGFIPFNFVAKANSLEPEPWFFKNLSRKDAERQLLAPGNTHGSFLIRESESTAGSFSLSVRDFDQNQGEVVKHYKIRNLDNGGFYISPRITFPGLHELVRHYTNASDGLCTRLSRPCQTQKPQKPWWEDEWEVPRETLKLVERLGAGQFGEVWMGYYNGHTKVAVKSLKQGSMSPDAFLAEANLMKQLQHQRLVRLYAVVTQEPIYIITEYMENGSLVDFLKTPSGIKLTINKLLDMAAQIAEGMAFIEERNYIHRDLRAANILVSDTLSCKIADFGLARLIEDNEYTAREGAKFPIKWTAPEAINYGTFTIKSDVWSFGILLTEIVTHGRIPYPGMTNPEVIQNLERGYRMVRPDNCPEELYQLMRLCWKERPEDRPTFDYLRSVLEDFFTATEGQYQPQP

As a reminder, the inhibition is the percentage by which the read-out fell short of the control. For the compound `O=C1c2ccc(Nc3ccc(F)cc3F)cc2CCc2ccc(OC[C@H](O)CO)cc21` [Skepinone-L], the Activity was 105% in series [1]; 91% in series [2]; 90% in series [3]; 97% in series [4]; 102% in series [5]; 100% in [6]. Further, the Activity is 106% in [7], 83% in series [8], 102% in [9] and 102% in series [10]. At CYP2C9, this compound returned an inhibition at 10 µM of 65%.
